Laboratory results: patent US10844049B2, “GLP-1R agonists and uses thereof” (QILU REGOR THERAPEUTICS INC., priority 2018, dated 2020)

The molecules below were run against GLP1R (Homo sapiens, UniProt P43220) (assay: GLP1R cAMP HTRF assay, HEK293/GLP-1R/CRE/Luc (HEK293T cells)). Settings: read-out: EC50.
Format: cell-based
How it was run: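 cAMP accumulation via HTRF after 30 min, 37 °C exposure of 1000 receptor-expressing cells/well to compound (0.5% DMSO final) in IBMX (500 μM)/0.1% BSA DPBS.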

GLP1R, sequence (P43220 24-463): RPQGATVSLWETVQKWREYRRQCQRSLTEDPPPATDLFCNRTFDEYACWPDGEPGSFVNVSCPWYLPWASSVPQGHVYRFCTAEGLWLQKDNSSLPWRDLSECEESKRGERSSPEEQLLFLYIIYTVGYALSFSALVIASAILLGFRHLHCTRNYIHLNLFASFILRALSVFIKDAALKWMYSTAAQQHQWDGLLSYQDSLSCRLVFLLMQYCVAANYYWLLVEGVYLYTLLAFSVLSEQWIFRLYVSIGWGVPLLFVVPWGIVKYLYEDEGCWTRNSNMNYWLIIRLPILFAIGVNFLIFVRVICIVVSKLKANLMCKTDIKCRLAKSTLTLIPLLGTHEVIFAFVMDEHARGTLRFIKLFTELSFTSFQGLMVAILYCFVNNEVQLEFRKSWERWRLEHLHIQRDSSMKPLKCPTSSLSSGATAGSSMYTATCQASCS

SMILES | EC50 [nM]
O=C(O)c1ccc2nc(CN3CCN(c4ccc5ccn(Cc6ccc(Cl)cc6F)c5n4)CC3)n(C[C@@H]3CCO3)c2c1 [Compound 13, (S)-2-((4-(1-(4-chloro-2-fluorobenzyl)-1 h-pyrrolo[2,3-b]pyridin-6-yl)piperazin-1-yl)methyl)-1-(oxetan-2-ylmethyl)-1 h-benzo[d]imidazole-6-carboxylic add] | ≤ 150
O=C(O)c1ccc2nc(CN3CC=C(c4cccc(OCc5ccc6c(c5)OC(F)(F)O6)n4)CC3)n(C[C@@H]3CCO3)c2c1 [Compound 153, (S)-2-((6-((2,2-difluorobenzo[d][1,3]dioxol-5-yl)methoxy)-3′,6′-dihydro-[2,4′-bipyridin]-1′(2′H)-yl)methyl)-1-(oxetan-2-ylmethyl)-1H-benzo[d]imidazole-6-carboxylic acid] | ≤ 15
O=C(O)c1ccc2nc(CN3CCC(n4c(=O)n(CCc5ccc(Cl)cc5F)c5ccccc54)CC3)n(C[C@@H]3CCO3)c2c1 [Compound 52, (S)-2-((4-(3-(4-chloro-2-fluorophenethyl)-2-oxo-2,3-dihydro-1 h-benzo[d]imidazol-1-yl)piperidin-1-yl)methyl)-1-(oxetan-2-ylmethyl)-1 h-benzo[d]imidazole-6-carboxylic acid] | > 1000
O=C(O)c1ccc2nc(CN3CC=C(c4cccc(OCc5c(Cl)cccc5Cl)n4)CC3)n(C[C@@H]3CCO3)c2c1 [Compound 138] | ≤ 1000
O=C(O)c1ccc2nc(CN3CC=C(c4cc(OCc5ccc(Cl)cc5F)ccc4F)CC3)n(C[C@@H]3CCO3)c2c1 [Compound 43, (S)-2-((4-(5-((4-chloro-2-fluorobenzyl)oxy)-2-fluorophenyl)-3,6-dihydropyridin-1(2H)-yl)methyl)-1-(oxetan-2-ylmethyl)-1H-benzo[d]imidazole-6-carboxylic add] | ≤ 15
O=C(O)c1ccc2nc(CN3CC=C(c4cc(F)cc(OCc5ccc(Cl)cc5F)c4)CC3)n(C[C@@H]3CCO3)c2c1 [Compound 42, (S)-2-((4-(3-((4-chloro-2-fluorobenzyl)oxy)-5-fluorophenyl)-3,6-dihydropyridin-1(2H)-yl)methyl)-1-(oxetan-2-ylmethyl)-1 h-benzo[d]imidazole-6-carboxylic acid] | ≤ 15
N#Cc1ccc(COc2cc(C3=CCN(Cc4nc5ccc(C(=O)O)cc5n4C[C@@H]4CCO4)CC3)ccc2F)c(F)c1 [Compound 204, (S)-2-((4-(3-((4-cyano-2-fluorobenzyl)oxy)-4-fluorophenyl)-3,6-dihydropyridin-1(2H)-yl)methyl)-1-(oxetan-2-ylmethyl)-1H-benzo[d]imidazole-6-carboxylic acid] | ≤ 15
N#Cc1ccc(COc2ccc(F)c(N3CCN(Cc4nc5ccc(C(=O)O)cc5n4C[C@@H]4CCO4)CC3)c2)c(F)c1 [Compound 197, (S)-2-((4-(5-((4-cyano-2-fluorobenzyl)oxy)-2-fluorophenyl)piperazin-1-yl)methyl)-1-(oxetan-2-ylmethyl)-1H-benzo[d]imidazole-6-carboxylic add] | ≤ 1000
O=C(O)c1ccc2nc(CN3CC=C(c4ccc5c(n4)N(CCc4cccc(Cl)c4)CCO5)CC3)n(C[C@@H]3CCO3)c2c1 [Compound 37, (S)-2-((4-(4-(3-chlorophenethyl)-3,4-dihydro-2 h-pyrido[3,2-b][1,4]oxazin-6-yl)-5,6-dihydropyridin-1(2H)-yl)methyl)-1-(oxetan-2-ylmethyl)-1 h-benzo[d]imidazole-6-carboxylic acid] | > 1000
O=C(O)c1ccc2nc(CN3CC=C(c4cccc(OCc5ccc(C#CC6CC6)cc5F)n4)CC3)n(C[C@@H]3CCO3)c2c1 [Compound 108, (S)-2-((6-((4-(cyclopropylethynyl)-2-fluorobenzyl)oxy)-3′,6′-dihydro-[2,4′-bipyridin]-1′(2′H)-yl)methyl)-1-(oxetan-2-ylmethyl)-1H-benzo[d]imidazole-6-carboxylic acid] | ≤ 15
O=C(O)c1ccc2nc(CN3CCC(F)(c4cccc(OCc5ccc(Cl)cc5F)n4)CC3)n(C[C@@H]3CCO3)c2c1 [Compound 67, (S)-2-((4-(6-(4-chloro-2-fluorobenzyloxy)pyridin-2-yl)-4-fluoropiperidin-1-yl)methyl)-1-(oxetan-2-ylmethyl)-1H-benzo[d]imidazole-6-carboxylic acid] | ≤ 150
O=C(O)c1ccc2nc(CN3CC=C(c4cc(F)c(F)c(OCc5ccc(Cl)cc5F)c4)CC3)n(C[C@@H]3CCO3)c2c1 [Compound 41, (S)-2-((4-(3-(4-chloro-2-fluorobenzyloxy)-4,5-difluorophenyl)-5,6-dihydropyridin-1(2H)-yl)methyl)-1-(oxetan-2-ylmethyl)-1 h-benzo[d]imidazole-6-carboxylic acid] | ≤ 15
O=C(O)c1ccc2nc(CN3CC=C(c4cccc(OCc5ccccc5C(F)(F)F)n4)CC3)n(C[C@@H]3CCO3)c2c1 [Compound 135, (S)-1-(oxetan-2-ylmethyl)-2-((6-((2-(trifluoromethyl)benzyl)oxy)-3′,6′-dihydro-[2,4′-bipyridin]-1′(2′H)-yl)methyl)-1H-benzo[d]imidazole-6-carboxylic acid] | ≤ 150
O=C(O)c1ccc2nc(CN3CC=C(c4nc(OCc5ccc(Cl)cc5F)ncc4F)CC3)n(C[C@@H]3CCO3)c2c1 [Compound 126, (S)-2-((4-(2-(4-chloro-2-fluorobenzyloxy)-5-fluoropyrimidin-4-yl)-5,6-dihydropyridin-1(2H)-yl)methyl)-1-(oxetan-2-ylmethyl)-1H-benzo[d]imidazole-6-carboxylic acid] | ≤ 15
O=C(O)c1ccc2nc(CN3CC=C(c4ccc5ccn(Cc6ccc(Cl)cc6F)c5c4)CC3)n(C[C@@H]3CCO3)c2c1 [Compound 27, (S)-2-((4-(1-(4-chloro-2-fluorobenzyl)-1 h-indol-6-yl)-5,6-dihydropyridin-1(2H)-yl)methyl)-1-(oxetan-2-ylmethyl)-1 h-benzo[d]imidazole-6-carboxylic add] | > 1000
CC(Oc1cccc(C2=CCN(Cc3nc4ccc(C(=O)O)cc4n3C[C@@H]3CCO3)CC2)n1)c1ccc(Cl)cc1F (stereo partly drawn) [Compound 70] | ≤ 15
O=C(O)c1ccc2nc(CN3CCN(c4cc(OCc5ccc(Cl)cc5F)c(F)cc4F)CC3)n(C[C@@H]3CCO3)c2c1 [Compound 188] | ≤ 150
O=C(O)c1ccc2nc(CN3CC=C(c4cccc(OCc5cccc(F)c5)n4)CC3)n(C[C@@H]3CCO3)c2c1 [Compound 156, (S)-2-((6-((3-fluorobenzyl)oxy)-3′,6′-dihydro-[2,4′-bipyridin]-1′(2′H)-yl)methyl)-1-(oxetan-2-ylmethyl)-1H-benzo[d]imidazole-6-carboxylic add] | ≤ 150
O=C(O)c1ccc2nc(CN3CC=C(c4cc(F)c(F)c(OCc5ccc(C#CC6CC6)cc5F)c4)CC3)n(C[C@@H]3CCO3)c2c1 [Compound 203, (S)-2-((4-(3-(4-(cyclopropylethynyl)-2-fluorobenzyloxy)-4,5-difluorophenyl)-5,6-dihydropyridin-1(2H)-yl)methyl)-1-(oxetan-2-ylmethyl)-1H-benzo[d]imidazole-6-carboxylic acid] | ≤ 150
N#Cc1ccc(COc2cccc(N3CCN(Cc4nc5ccc(C(=O)O)cc5n4C[C@@H]4CCO4)CC3)c2)c(F)c1 [Compound 193, (S)-2-((4-(3-(4-cyano-2-fluorobenzyloxy)phenyl)piperazin-1-yl)methyl)-1-(oxetan-2-ylmethyl)-1H-benzo[d]imidazole-6-carboxylic acid] | ≤ 150
O=C(O)c1ccc2nc(CN3CC=C(c4cccc(OCc5cc(Cl)ccc5F)n4)CC3)n(C[C@@H]3CCO3)c2c1 [Compound 140, (S)-2-((6-((5-chloro-2-fluorobenzyl)oxy)-3′,6′-dihydro-[2,4′-bipyridin]-1′(2′H)-yl)methyl)-1-(oxetan-2-ylmethyl)-1H-benzo[d]imidazole-6-carboxylic add] | ≤ 150
O=C(O)c1ccc2nc(CN3CC=C(c4ccc5c(n4)N(Cc4ccc(Cl)cc4F)C(=O)CO5)CC3)n(C[C@@H]3CCO3)c2c1 [Compound 38, (S)-2-((4-(4-(4-chloro-2-fluorobenzyl)-3-oxo-3,4-dihydro-2 h-pyrido[3,2-b][1,4]oxazin-6-yl)-5,6-dihydropyridin-1(2H)-yl)methyl)-1-(oxetan-2-ylmethyl)-1 h-benzo[d]imidazole-6-carboxylic add] | ≤ 1000
O=C(O)c1ccc2nc(CN3CC=C(c4cccc(OCc5ccc6c(c5)OCCO6)n4)CC3)n(C[C@@H]3CCO3)c2c1 [Compound 151, (S)-2-((6-((2,3-dihydrobenzo[b][1,4]dioxin-6-yl)methoxy)-3′,6′-dihydro-[2,4′-bipyridin]-1′(2′H)-yl)methyl)-1-(oxetan-2-ylmethyl)-1H-benzo[d]imidazole-6-carboxylic add] | ≤ 15
O=C(O)c1ccc2nc(CN3CC=C(c4ccc(=O)n(CCc5ccc(Cl)cc5F)n4)CC3)n(C[C@@H]3CCO3)c2c1 [Compound 20, (S)-2-((4-(1-(4-chloro-2-fluorophenethyl)-6-oxo-1,6-dihydropyridazin-3-yl)-5,6-dihydropyridin-1(2H)-yl)methyl)-1-(oxetan-2-ylmethyl)-1 h-benzo[d]imidazole-6-carboxylic acid] | ≤ 1000
CC(c1ncco1)n1c(CN2CC=C(c3cccc(OCc4ccc(Cl)cc4F)n3)CC2)nc2ccc(C(=O)O)cc21 (stereo not drawn) [Compound 112, 2-((6-((4-chloro-2-fluorobenzyl)oxy)-3′,6′-dihydro-[2,4′-bipyridin]-1′(2′H)-yl)methyl)-1-(1-(oxazol-2-yl)ethyl)-1H-benzo[d]imidazole-6-carboxylic acid] | ≤ 1000
N#Cc1ccc(COc2cccc(N3CC=C(Cc4nc5ccc(C(=O)O)cc5n4C[C@@H]4CCO4)CC3)n2)c(F)c1 [Compound 240, (S)-2-((6′-((4-cyano-2-fluorobenzyl)oxy)-3,6-dihydro-2H-[1,2′-bipyridin]-4-yl)methyl)-1-(oxetan-2-ylmethyl)-1H-benzo[d]imidazole-6-carboxylic add] | ≤ 150
N#Cc1ccc(COc2ccc(F)c(C3=CCN(Cc4nc5ccc(C(=O)O)cc5n4C[C@@H]4CCO4)CC3)c2)c(F)c1 [Compound 206, (S)-2-((4-(5-((4-cyano-2-fluorobenzyl)oxy)-2-fluorophenyl)-3,6-dihydropyridin-1(2H)-yl)methyl)-1-(oxetan-2-ylmethyl)-1H-benzo[d]imidazole-6-carboxylic add] | ≤ 15
